Holding throughout (assay): Weeding effect in post-emergence stage
Common to all, as to assay type: in vivo
Holding throughout (conditions): 250 g/ha; 2 leaf stage; 15 days after application; fresh weight control rate

In assay [1] the test system is Abutilon theophrasti. The method, boiled down:
(§1)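 Two-leaf-stage pot plants, spray-tower application at 500/250/125/60/30/15 g/ha with methyl oleate EC synergist; fresh weight control level (0–5) read at 15 days post-treatment, three replicates averaged.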

For assay [2], the system named is Amaranthus retroflexus. The method, boiled down:
as §1

The test system of assay [3] is Digitaria sanguinalis. The method in brief:
as §1

Assay [4] has as its system Echinochloa crusgali. The method in brief: as §1

Structures are written as SMILES.

On to `Cc1c(C(=O)Nc2nnnn2C)ccc(S(C)(=O)=O)c1[S@+]([O-])CCF` [Compound 519], for which the “weeding effect in post-emergence stage, activity level (growth control rate), Abutilon theophrasti” value (from here on “weeding effect … Abutilon theophrasti”) in assay [1] was 5 (Level 5: growth control rate is above 85%). Moreover, in assay [2], the “weeding effect in post-emergence stage, activity level (growth control rate), Amaranthus retroflexus” value (“weeding effect … Amaranthus retroflexus” below) is 5 (Level 5: growth control rate is above 85%). Also, the “weeding effect in post-emergence stage, activity level (growth control rate), Digitaria sanguinalis” value (“weeding effect … Digitaria sanguinalis” for short) in assay [3] is listed as 5 (Level 5: growth control rate is above 85%). The “weeding effect in post-emergence stage, activity level (growth control rate), Echinochloa crusgali” value (“weeding effect … Echinochloa crusgali” for short) in assay [4] is listed as 5 (Level 5: growth control rate is above 85%).
For `Cc1c(C(=O)Nc2nnnn2C)ccc(S(C)(=O)=O)c1[S@+]([O-])CC(F)(F)F` [Compound 520], in assay [1], the “weeding effect … Abutilon theophrasti” value was 5 (Level 5: growth control rate is above 85%). The “weeding effect … Amaranthus retroflexus” value in assay [2] was 5 (Level 5: growth control rate is above 85%). Also, the “weeding effect … Digitaria sanguinalis” value in assay [3] is listed as 5 (Level 5: growth control rate is above 85%). Further, in assay [4], the “weeding effect … Echinochloa crusgali” value is listed as 5 (Level 5: growth control rate is above 85%).
With `Cc1c(C(=O)Nc2nnnn2C)ccc(S(C)(=O)=O)c1[S@+]([O-])CC(C)F` (some centres unmarked) [Compound 521], the “weeding effect … Abutilon theophrasti” value in assay [1] is 5 (Level 5: growth control rate is above 85%). Moreover, the “weeding effect … Amaranthus retroflexus” value in assay [2] was 5 (Level 5: growth control rate is above 85%). Also, the “weeding effect … Digitaria sanguinalis” value in assay [3] is given as 5 (Level 5: growth control rate is above 85%). Also, in assay [4], the “weeding effect … Echinochloa crusgali” value was 5 (Level 5: growth control rate is above 85%).
Regarding `Cc1c(C(=O)Nc2nnnn2C)ccc(S(C)(=O)=O)c1[S@+]([O-])CC(F)F` [Compound 522], in assay [1], the “weeding effect … Abutilon theophrasti” value is 5 (Level 5: growth control rate is above 85%). Further, the “weeding effect … Amaranthus retroflexus” value in assay [2] is listed as 5 (Level 5: growth control rate is above 85%). For the same molecule, in assay [3], the “weeding effect … Digitaria sanguinalis” value is listed as 5 (Level 5: growth control rate is above 85%). For the same molecule, in assay [4], the “weeding effect … Echinochloa crusgali” value is 5 (Level 5: growth control rate is above 85%).
`Cc1c(C(=O)Nc2nnnn2C)ccc(S(C)(=O)=O)c1[S@+]([O-])CCCF` [Compound 523]: the “weeding effect … Abutilon theophrasti” value in assay [1] was 5 (Level 5: growth control rate is above 85%). Also, the “weeding effect … Amaranthus retroflexus” value in assay [2] is 5 (Level 5: growth control rate is above 85%). In assay [3], the “weeding effect … Digitaria sanguinalis” value is 5 (Level 5: growth control rate is above 85%). Besides, the “weeding effect … Echinochloa crusgali” value in assay [4] was 5 (Level 5: growth control rate is above 85%).
With `Cc1c(C(=O)Nc2nnnn2C)ccc(S(C)(=O)=O)c1[S@+]([O-])CCC(F)(F)F` [Compound 524], the “weeding effect … Abutilon theophrasti” value in assay [1] is 5 (Level 5: growth control rate is above 85%). The “weeding effect … Amaranthus retroflexus” value in assay [2] is listed as 5 (Level 5: growth control rate is above 85%). Besides, in assay [3], the “weeding effect … Digitaria sanguinalis” value is 5 (Level 5: growth control rate is above 85%). Also, the “weeding effect … Echinochloa crusgali” value in assay [4] is 5 (Level 5: growth control rate is above 85%).
`Cc1c(C(=O)Nc2nnnn2C)ccc(S(C)(=O)=O)c1[S@+]([O-])CCCl` [Compound 525]: in assay [1], the “weeding effect … Abutilon theophrasti” value is 5 (Level 5: growth control rate is above 85%). Further, the “weeding effect … Amaranthus retroflexus” value in assay [2] is 5 (Level 5: growth control rate is above 85%). Also, in assay [3], the “weeding effect … Digitaria sanguinalis” value is 5 (Level 5: growth control rate is above 85%). Also, in assay [4], the “weeding effect … Echinochloa crusgali” value is recorded as 5 (Level 5: growth control rate is above 85%).
`Cc1c(C(=O)Nc2nnnn2C)ccc(S(C)(=O)=O)c1[S@+]([O-])CCCCl` [Compound 526]: the “weeding effect … Abutilon theophrasti” value in assay [1] is listed as 5 (Level 5: growth control rate is above 85%). In addition, the “weeding effect … Amaranthus retroflexus” value in assay [2] is on record as 5 (Level 5: growth control rate is above 85%). In addition, in assay [3], the “weeding effect … Digitaria sanguinalis” value is 5 (Level 5: growth control rate is above 85%). In assay [4], the “weeding effect … Echinochloa crusgali” value is reported as 5 (Level 5: growth control rate is above 85%).
On to `Cc1c(C(=O)Nc2nnnn2C)ccc(S(C)(=O)=O)c1[S@+]([O-])CC#N` [Compound 527], for which, in assay [1], the “weeding effect … Abutilon theophrasti” value is listed as 5 (Level 5: growth control rate is above 85%). Further, the “weeding effect … Amaranthus retroflexus” value in assay [2] is recorded as 5 (Level 5: growth control rate is above 85%). The “weeding effect … Digitaria sanguinalis” value in assay [3] is on record as 5 (Level 5: growth control rate is above 85%). For the same molecule, in assay [4], the “weeding effect … Echinochloa crusgali” value is reported as 5 (Level 5: growth control rate is above 85%).
Consider `COCC[S@@+]([O-])c1c(S(C)(=O)=O)ccc(C(=O)Nc2nnnn2C)c1C` [Compound 528], for which the “weeding effect … Abutilon theophrasti” value in assay [1] is on record as 5 (Level 5: growth control rate is above 85%). For the same molecule, the “weeding effect … Amaranthus retroflexus” value in assay [2] is on record as 5 (Level 5: growth control rate is above 85%). Moreover, in assay [3], the “weeding effect … Digitaria sanguinalis” value is 5 (Level 5: growth control rate is above 85%). Besides, in assay [4], the “weeding effect … Echinochloa crusgali” value was 5 (Level 5: growth control rate is above 85%).
On to `CCC[S@@+]([O-])c1c(C(F)(F)F)ccc(C(=O)Nc2nnc(C)o2)c1OCOC` [Compound 536], for which the “weeding effect … Abutilon theophrasti” value in assay [1] is 5 (Level 5: growth control rate is above 85%). Further, the “weeding effect … Amaranthus retroflexus” value in assay [2] is reported as 5 (Level 5: growth control rate is above 85%). The “weeding effect … Digitaria sanguinalis” value in assay [3] is recorded as 5 (Level 5: growth control rate is above 85%). Also, the “weeding effect … Echinochloa crusgali” value in assay [4] is 5 (Level 5: growth control rate is above 85%).
Consider `CCC[S@@+]([O-])c1c(C(F)(F)F)ccc(C(=O)Nc2nnc(C)o2)c1C` [Compound 537], for which the “weeding effect … Abutilon theophrasti” value in assay [1] is listed as 5 (Level 5: growth control rate is above 85%). Also, in assay [2], the “weeding effect … Amaranthus retroflexus” value is listed as 5 (Level 5: growth control rate is above 85%). The “weeding effect … Digitaria sanguinalis” value in assay [3] is recorded as 5 (Level 5: growth control rate is above 85%). For the same molecule, the “weeding effect … Echinochloa crusgali” value in assay [4] is reported as 5 (Level 5: growth control rate is above 85%).
With `CCC[S@@+]([O-])c1c(C(F)(F)F)ccc(C(=O)Nc2nnc(C)o2)c1CC` [Compound 538], in assay [1], the “weeding effect … Abutilon theophrasti” value is given as 5 (Level 5: growth control rate is above 85%). For the same molecule, the “weeding effect … Amaranthus retroflexus” value in assay [2] is given as 5 (Level 5: growth control rate is above 85%). The “weeding effect … Digitaria sanguinalis” value in assay [3] was 5 (Level 5: growth control rate is above 85%). Moreover, in assay [4], the “weeding effect … Echinochloa crusgali” value is 5 (Level 5: growth control rate is above 85%).
Turning to `CCC[S@@+]([O-])c1c(C(F)(F)F)ccc(C(=O)Nc2nnc(C)o2)c1Br` [Compound 544], the “weeding effect … Abutilon theophrasti” value in assay [1] is 5 (Level 5: growth control rate is above 85%). Also, the “weeding effect … Amaranthus retroflexus” value in assay [2] is recorded as 5 (Level 5: growth control rate is above 85%). Moreover, in assay [3], the “weeding effect … Digitaria sanguinalis” value is on record as 5 (Level 5: growth control rate is above 85%). Also, the “weeding effect … Echinochloa crusgali” value in assay [4] is 5 (Level 5: growth control rate is above 85%).
For the molecule `CCC[S@@+]([O-])c1c(C(F)(F)F)ccc(C(=O)Nc2nnc(C)o2)c1I` [Compound 545], the “weeding effect … Abutilon theophrasti” value in assay [1] is recorded as 5 (Level 5: growth control rate is above 85%). For the same molecule, the “weeding effect … Amaranthus retroflexus” value in assay [2] was 5 (Level 5: growth control rate is above 85%). In assay [3], the “weeding effect … Digitaria sanguinalis” value is 5 (Level 5: growth control rate is above 85%). For the same molecule, the “weeding effect … Echinochloa crusgali” value in assay [4] is on record as 5 (Level 5: growth control rate is above 85%).
On to `CCC[S@@+]([O-])c1c(C(F)(F)F)ccc(C(=O)Nc2nnc(C)o2)c1C#N` [Compound 546], for which the “weeding effect … Abutilon theophrasti” value in assay [1] is listed as 5 (Level 5: growth control rate is above 85%). The “weeding effect … Amaranthus retroflexus” value in assay [2] is 5 (Level 5: growth control rate is above 85%). Further, the “weeding effect … Digitaria sanguinalis” value in assay [3] is given as 5 (Level 5: growth control rate is above 85%). In assay [4], the “weeding effect … Echinochloa crusgali” value is 5 (Level 5: growth control rate is above 85%).
For the molecule `CCC[S@@+]([O-])c1c(C(F)(F)F)ccc(C(=O)Nc2nnc(C)o2)c1SCOC` [Compound 573], the “weeding effect … Abutilon theophrasti” value in assay [1] is reported as 5 (Level 5: growth control rate is above 85%). The “weeding effect … Amaranthus retroflexus” value in assay [2] is on record as 5 (Level 5: growth control rate is above 85%). In assay [3], the “weeding effect … Digitaria sanguinalis” value was 5 (Level 5: growth control rate is above 85%). In assay [4], the “weeding effect … Echinochloa crusgali” value was 5 (Level 5: growth control rate is above 85%).

The values are drawn from patent US12643871B2, “Aryl formamide compound containing chiral sulfur oxide or salt thereof, preparation method, herbicidal composition and use thereof” (Qingdao Kingagroot Chemical Compound Co., Ltd., priority 2019, dated 2026).
